# Assays:
# Assay type in all cases: toxicity, cell-based
# HEK-293T = test: Incucyte cell viability with HEK293T; conditions: human, 10 µM, compound concentration 10 uM
# Fibroblast = test: Incucyte cell viability with human fibroblast; conditions: 10 µM, compound concentration 10 uM
# U2OS = test: Incucyte cell viability with U2OS; conditions: human, 10 µM, compound concentration 10 uM
# Also: unitless GR value; below 1 slowed growth and below 0 cell loss.
structure (smiles),measurement,setting,value
CC(C)[C@H](CO)Nc1nc(Nc2ccc(C(=O)O)c(Cl)c2)c2ncn(C(C)C)c2n1 [PURVALANOL B],Growth Rate,"HEK-293T; 18 h, replicate number 1",0.9
same,Growth Rate,"HEK-293T; 24 h, replicate number 1",1
same,Growth Rate,"Fibroblast; 0 h, replicate number 1",-0.93
same,Growth Rate,"Fibroblast; 18 h, replicate number 1",0.88
same,Growth Rate,"U2OS; 0 h, replicate number 1",-0.96
same,Growth Rate,"U2OS; 0 h, replicate number 2",0.8
same,Growth Rate,"U2OS; 6 h, replicate number 2",0.56
same,Growth Rate,"U2OS; 12 h, replicate number 2",0.95
C=C[C@H]1C[N@@]2CC[C@H]1C[C@@H]2[C@@H](O)c1ccnc2ccc(OC)cc12 [QUINIDINE],Growth Rate,"HEK-293T; 6 h, replicate number 2",0.85
same,Growth Rate,"Fibroblast; 0 h, replicate number 1",-0.43
same,Growth Rate,"Fibroblast; 6 h, replicate number 1",0.36
same,Growth Rate,"Fibroblast; 6 h, replicate number 2",0.17
same,Growth Rate,"Fibroblast; 12 h, replicate number 1",-1
same,Growth Rate,"Fibroblast; 12 h, replicate number 2",0.9
same,Growth Rate,"Fibroblast; 18 h, replicate number 2",1
same,Growth Rate,"Fibroblast; 24 h, replicate number 2",0.74
same,Growth Rate,"U2OS; 0 h, replicate number 2",-1
same,Growth Rate,"U2OS; 6 h, replicate number 2",-0.07
same,Growth Rate,"U2OS; 12 h, replicate number 1",0.59
same,Growth Rate,"U2OS; 12 h, replicate number 2",0.65
same,Growth Rate,"U2OS; 18 h, replicate number 1",0.93
same,Growth Rate,"U2OS; 18 h, replicate number 2",0.73
same,Growth Rate,"U2OS; 24 h, replicate number 1",0.96
same,Growth Rate,"U2OS; 24 h, replicate number 2",0.83
c1ccc2nc(N3CCNCC3)ccc2c1 [QUIPAZINE],Growth Rate,"HEK-293T; 6 h, replicate number 1",0.43
same,Growth Rate,"HEK-293T; 6 h, replicate number 2",0.5
same,Growth Rate,"HEK-293T; 12 h, replicate number 2",0.95
same,Growth Rate,"Fibroblast; 0 h, replicate number 1",0.15
same,Growth Rate,"Fibroblast; 0 h, replicate number 2",0.79
same,Growth Rate,"Fibroblast; 6 h, replicate number 1",0.27
same,Growth Rate,"Fibroblast; 6 h, replicate number 2",0.04
same,Growth Rate,"Fibroblast; 12 h, replicate number 1",-0.91
same,Growth Rate,"Fibroblast; 12 h, replicate number 2",0.92
same,Growth Rate,"Fibroblast; 18 h, replicate number 1",0.52
same,Growth Rate,"Fibroblast; 18 h, replicate number 2",0.72
same,Growth Rate,"Fibroblast; 24 h, replicate number 1",0.85
same,Growth Rate,"Fibroblast; 24 h, replicate number 2",0.58
same,Growth Rate,"U2OS; 0 h, replicate number 1",-0.85
same,Growth Rate,"U2OS; 6 h, replicate number 2",0.58
same,Growth Rate,"U2OS; 12 h, replicate number 1",0.55
same,Growth Rate,"U2OS; 18 h, replicate number 1",0.94
O=C(Nc1ccc(Oc2ccc(Cl)cc2)c(Cl)c1)c1cc(I)cc(I)c1O [RAFOXANIDE],Growth Rate,"HEK-293T; 6 h, replicate number 1",-0.37
same,Growth Rate,"HEK-293T; 6 h, replicate number 2",0.49
same,Growth Rate,"HEK-293T; 12 h, replicate number 1",-0.61
same,Growth Rate,"HEK-293T; 12 h, replicate number 2",0.91
same,Growth Rate,"HEK-293T; 18 h, replicate number 1",-0.55
same,Growth Rate,"HEK-293T; 24 h, replicate number 1",-0.48
same,Growth Rate,"Fibroblast; 0 h, replicate number 2",-0.93
same,Growth Rate,"Fibroblast; 6 h, replicate number 1",-0.56
same,Growth Rate,"Fibroblast; 12 h, replicate number 1",-1
same,Growth Rate,"U2OS; 0 h, replicate number 1",0.6
same,Growth Rate,"U2OS; 0 h, replicate number 2",-1
same,Growth Rate,"U2OS; 6 h, replicate number 1",0.57
same,Growth Rate,"U2OS; 12 h, replicate number 1",0.92
same,Growth Rate,"U2OS; 12 h, replicate number 2",0.74
same,Growth Rate,"U2OS; 18 h, replicate number 1",0.88
O=C(O)CCn1c2c(c3ccccc31)C[C@H](NS(=O)(=O)c1ccc(F)cc1)CC2 [RAMATROBAN],Growth Rate,"HEK-293T; 0 h, replicate number 1",0.1
same,Growth Rate,"HEK-293T; 0 h, replicate number 2",0.04
same,Growth Rate,"Fibroblast; 12 h, replicate number 2",0.99
same,Growth Rate,"Fibroblast; 18 h, replicate number 2",0.89
same,Growth Rate,"Fibroblast; 24 h, replicate number 2",0.74
same,Growth Rate,"U2OS; 0 h, replicate number 1",0.53
same,Growth Rate,"U2OS; 6 h, replicate number 1",0.88
CCOc1cc(CC(=O)N[C@@H](CC(C)C)c2ccccc2N2CCCCC2)ccc1C(=O)O [REPAGLINIDE],Growth Rate,"HEK-293T; 0 h, replicate number 1",0.91
same,Growth Rate,"HEK-293T; 0 h, replicate number 2",0.8
same,Growth Rate,"Fibroblast; 12 h, replicate number 2",0.38
same,Growth Rate,"Fibroblast; 18 h, replicate number 2",0.61
same,Growth Rate,"Fibroblast; 24 h, replicate number 2",0.86
same,Growth Rate,"U2OS; 12 h, replicate number 2",0.94
same,Growth Rate,"U2OS; 18 h, replicate number 2",0.96
same,Growth Rate,"U2OS; 24 h, replicate number 1",0.99
CCN(C(=O)c1cc(F)ccc1Oc1cncnc1N1CC2(CCN(C[C@H]3CC[C@H](NS(=O)(=O)CC)CC3)CC2)C1)C(C)C [REVUMENIB],Growth Rate,"HEK-293T; 0 h, replicate number 1",-0.33
same,Growth Rate,"HEK-293T; 0 h, replicate number 2",0.43
same,Growth Rate,"HEK-293T; 6 h, replicate number 2",0.24
same,Growth Rate,"HEK-293T; 12 h, replicate number 2",0.53
same,Growth Rate,"HEK-293T; 18 h, replicate number 2",0.48
same,Growth Rate,"HEK-293T; 24 h, replicate number 2",0.38
same,Growth Rate,"Fibroblast; 0 h, replicate number 2",0.3
same,Growth Rate,"Fibroblast; 6 h, replicate number 1",0.15
same,Growth Rate,"Fibroblast; 6 h, replicate number 2",0.81
same,Growth Rate,"Fibroblast; 12 h, replicate number 1",0.94
same,Growth Rate,"Fibroblast; 18 h, replicate number 1",0.79
same,Growth Rate,"Fibroblast; 18 h, replicate number 2",0.88
same,Growth Rate,"Fibroblast; 24 h, replicate number 1",0.88
same,Growth Rate,"Fibroblast; 24 h, replicate number 2",0.93
same,Growth Rate,"U2OS; 0 h, replicate number 1",0.19
same,Growth Rate,"U2OS; 0 h, replicate number 2",0.45
same,Growth Rate,"U2OS; 6 h, replicate number 1",0.62
same,Growth Rate,"U2OS; 6 h, replicate number 2",0.45
same,Growth Rate,"U2OS; 12 h, replicate number 1",0.8
same,Growth Rate,"U2OS; 12 h, replicate number 2",0.79
same,Growth Rate,"U2OS; 18 h, replicate number 1",0.77
same,Growth Rate,"U2OS; 18 h, replicate number 2",0.76
same,Growth Rate,"U2OS; 24 h, replicate number 1",0.76
same,Growth Rate,"U2OS; 24 h, replicate number 2",0.67
COc1ccc(F)c(F)c1C(=O)c1cnc(NC2CCN(S(C)(=O)=O)CC2)nc1N [RG-547],Growth Rate,"HEK-293T; 0 h, replicate number 1",-1
same,Growth Rate,"HEK-293T; 0 h, replicate number 2",0.15
same,Growth Rate,"HEK-293T; 6 h, replicate number 1",0.16
same,Growth Rate,"HEK-293T; 6 h, replicate number 2",-0.37
same,Growth Rate,"HEK-293T; 12 h, replicate number 1",-0.1
same,Growth Rate,"HEK-293T; 12 h, replicate number 2",-0.5
same,Growth Rate,"HEK-293T; 18 h, replicate number 1",-0.15
same,Growth Rate,"HEK-293T; 18 h, replicate number 2",-0.47
same,Growth Rate,"HEK-293T; 24 h, replicate number 1",-0.13
same,Growth Rate,"HEK-293T; 24 h, replicate number 2",-0.37
same,Growth Rate,"Fibroblast; 0 h, replicate number 1",-1
same,Growth Rate,"Fibroblast; 0 h, replicate number 2",0.02
same,Growth Rate,"Fibroblast; 6 h, replicate number 2",0.62
same,Growth Rate,"Fibroblast; 12 h, replicate number 2",0.53
same,Growth Rate,"Fibroblast; 18 h, replicate number 1",0.96
same,Growth Rate,"Fibroblast; 18 h, replicate number 2",0.28
same,Growth Rate,"Fibroblast; 24 h, replicate number 1",0.65
same,Growth Rate,"Fibroblast; 24 h, replicate number 2",0.15
same,Growth Rate,"U2OS; 0 h, replicate number 1",-1
same,Growth Rate,"U2OS; 0 h, replicate number 2",0.68
same,Growth Rate,"U2OS; 6 h, replicate number 2",0.23
same,Growth Rate,"U2OS; 12 h, replicate number 1",0.73
same,Growth Rate,"U2OS; 12 h, replicate number 2",0.02
same,Growth Rate,"U2OS; 18 h, replicate number 1",0.18
same,Growth Rate,"U2OS; 18 h, replicate number 2",0.02
same,Growth Rate,"U2OS; 24 h, replicate number 1",0.06
same,Growth Rate,"U2OS; 24 h, replicate number 2",-0.11
